Laboratory results taken from patent US20250345275A1, “Micromolar Halogenated Fluorescein Assists in Full Skin-Thickness Wound Healing” (priority 2024, published 2025).
“And” between values parts separate entries of the source, which are not always exact repeats. Equal entries are not always repeated. “Also recorded” adds a separate entry of the source.

Experiments:
[1] = test system: full-thickness cutaneous wounds; assay: Wound closure by planimetry of digital images; type: in vivo, BALB/c mice; conditions: for wound closure compared with vehicle alone: 0.01% RB, no irradiation, day 3 post-injury (FIG. 4)
Procedure: (§1) A Balb/C mice excision model was used with a cutaneous full-thickness injury made by a 6-mm diameter punch biopsy. The mice were 7-weeks old and 52 animals were used in the studies discussed herein.
(§2) Animals were administered the RB-containing PF-127-containing hydrogel every other day. A total of three animal treatment groups were studied along with two control groups. one group received vehicle plus light treatment, whereas the other group received vehicle without light. One treatment group of mice received 0.1% RB-containing hydrogel with irradiation for 30 minutes using monochromatic green light (MGL), λ=532 nm at a distance of 2.5 cm that provided […] and a dose of 35J/cm^2. A second treatment group also received 0.1% RB-containing hydrogel, but without MGL irradiation. The third treatment group received 0.01% RB-containing hydrogel without MGL irradiation.
Before surgery, animals received buprenorphine (0.1 mg kg^−1) for pre-procedural analgesia, and inhaled isoflurane (0.2-1.0%) was continuously administered throughout the procedure. The dorsum of the animal was shaved, a depilatory cream was applied to completely remove all dorsal hair, and the area was scrubbed with betadine antiseptic. The animal was laid in the right lateral decubitus position and using forceps, the dorsal skin was stretched, and a 6-mm punch biopsy was used to create bilateral full-thickness cutaneous wounds. Next, a 0.5 mm-thick silicone ring was sutured in place through the panniculus carnosus around each wound to ensure wounds healed primarily through re-epithelialization.
Animals were then randomized into treatment groups as follows: (1) Saline control in the dark, (2) Saline control with MGL irradiation, (3) Hydrogel vehicle in the dark, (4) Hydrogel vehicle with MGL irradiation, (5) RB in the dark, and (6) RB with MGL irradiation. Treatment was applied directly to the wound bed (800 uL per wound) and spread using a sterile surgical spatula to ensure even and uniform thickness over the wound.
Animals were then placed in a separate light-sealed and heated enclosure in a sternal position to expose dorsal wounds and remained under general isoflurane anesthesia. All other exposed portions of the body were then covered with sterile wrap to expose only the wounds. […] Animals were euthanized at 3-, 7-, and 14-days post-injury when wound healing parameters were assessed.
After initial surgery and at each study time point post-injury, color digital images were obtained for each wound. […] Wound planimetry was calculated using ImageJ software (ver. 1.53) by tracing wound edges yielding a surface area in […]. Wound closure was calculated as follows: […]

[2] = PV-10 as RB source, delivered intratumorally; cited from earlier work
[3] = test system: full-thickness cutaneous wounds; assay: Wound erythema index, DermaLab Combo; type: in vivo, BALB/c mice
Procedure: (§3) Animals were placed under general anesthesia and a 10-mm diameter TEWL probe was placed directly over each wound ensuring uniform coverage and forming a seal immediately around the wound. Following environmental normalization to ambient temperature and relative humidity, TWEL was calculated at […]. A minimum of three TWEL measurements were obtained for each full-thickness wound and uninjured skin area. A color sensitive 7-mm diameter probe, insensitive to ambient light, was then placed over each wound to measure erythema; four measures were obtained for each wound. All wound erythema calculations were normalized to uninjured skin and reported as an index value over time.
as §3, with “At each time point prior to euthanasia, transepidermal water loss (TEWL) and wound erythema indices were measured using the validated DermaLab combo system (CortexTechnologies, Hadsund, Denmark). Animals” for “Animals”, “TEWL” for “TWEL”

[4] = Tolerated bolus dose on intravasation after intratumoral PV-10; type: in vivo; conditions: equivalent of the 1500 mg bolus
Procedure: The wounds were treated with an aqueous pharmaceutical composition prepared using a PV-10®-based rose bengal formulation. PV-10® is a sterile, non-pyrogenic 10% solution of disodium RB in 0.9% saline for injection. Using PV-10®, as its RB source, RB has been tolerated at a bolus dose of 1500 mg upon intravasation when delivered intratumorally; this equates to an exposure of approximately 300 mg/L in the bloodstream (300 μM RB).

[5] = test system: full-thickness cutaneous wounds; assay: Tissue ROS generation in full-thickness injury; type: in vivo, Balb/c mice; conditions: RB phototherapy
Text: Following functional and planimetric measurements, animals were euthanized and the dorsal skin, inclusive down to underlying facia and dorsal musculature, was excised; care was employed to not disrupt any open wound post-mortem and maintain tissue integrity. The left-side wound and surrounding uninjured skin was directly transferred into a flat position histology cassette and the right-side wound was immediately snap-frozen in liquid nitrogen for reactive oxygen species and molecular analyses. Histology cassettes were then immersed in 10% neutral buffer formalin for 72 hours and subsequently placed in 70% ethanol thereafter. Uninjured skin tissue for each animal was also collected and preserved for future analyses.
Data are presented as mean±SD with n=3-6 animals per group

[6] = Complete blood count and blood chemistry panel; type: in vivo, BALB/c mice
Text: (§4) Primary outcomes assessed safety through analysis of full complete blood count (CBC), comprehensive blood chemistry, body and organ weight. Secondary outcomes analyzed wound closure, epidermal water loss, erythema, and comprehensive wound histology.
(§5) In the primary outcome and measures and observations, the treated animals and a control group received a full CBC and comprehensive blood chemistry panel, as well as observations of body weight food consumption, and organ appearance. Secondarily, wound closure, epidermal water loss erythema and wound histology were examined.
(§6) to determine the effects of rose bengal on blood parameters, blood samples were collected at euthanasia through cardiac puncture and were analyzed for complete blood count using an Abaxis VETSCAN® HM5 Hematology Analyzer Allied Analytic, LLC., Tampa, FL. The blood components analyzed included: white blood cells [WBC], lymphocytes [LYMPH], monocytes [MONO], neutrophils [NEUT], red blood cells [RBC], hemoglobin [HGB], hematocrit [HCT], mean corpuscle volume [MCV], mean corpuscle hemoglobin [MCH], mean corpuscle hemoglobin concentration [MCHC], platelets [PLT], and mean platelet volume [MPV]. Blood chemistry was also analyzed using an Abaxis VETSCAN® VS2 Chemistry Analyzer—Diagnostics to determine liver and Pancreas function through Albumin [ALB], Alkaline phosphatase [ALP], Alanine aminotransferase [ALT], Total bilirubin [tBIL], Total protein [TPRT], Globulin [GLOB], and Amylase [AMY]. Glucose & electrolyte levels were determined by measuring Glucose [GLU], Calcium [CA], Phosphorus [PHOS], Sodium [NA], and Potassium [K]. Kidney Function was assessed through Creatinine [CRE] and Blood urea nitrogen [BUN] levels.

[7] = Body weight, survival, adverse events and organ examination in mice with full-thickness wounds; type: in vivo, BALB/c mice; conditions: for loss of body weight: 3 and 7 days post-injury (FIG. 1A)
Procedure: Animals: The Institutional Animal Care and Use Committee of the University of Texas Medical Branch in Galveston (UTMB) approved all protocols and studies were conducted in accordance with animal welfare regulations. Healthy 7-week-old male BALB/c mice (N=58) (strain 028, Charles River Laboratories, Houston, Texas, USA) 18-22 g were socially housed in temperature-and light-controlled facilities at UTMB with free access to food and water. Animals were acclimatized for one week before surgical procedures.
as §1, §2, §4, §5, §6

[8] = non-medical grade rose bengal, photoactivation with 550 nm MGL; cited from earlier work
[9] = test system: full-thickness cutaneous wounds; assay: Transepidermal water loss (TEWL) over the wound, DermaLab Combo; type: in vivo, BALB/c mice; conditions: 0.01% RBS, no irradiation; for TEWL relative to usual (pre-injury) range: day 14 post-injury (FIG. 2B); for TEWL compared with vehicle alone: day 14 post-injury, p<0.0001 (FIG. 2B)
Procedure: as §3
as §3, with “At each time point prior to euthanasia, transepidermal water loss (TEWL) and wound erythema indices were measured using the validated DermaLab combo system (CortexTechnologies, Hadsund, Denmark). Animals” for “Animals”, “TEWL” for “TWEL”

[10] = test system: full-thickness cutaneous wounds; assay: Number of blood vessels in the wound area (smooth muscle actin staining); type: in vivo, BALB/c mice; conditions: 0.01% RBS in vehicle, p<0.05 (FIG. 6); group not clearly stated
[11] = 0.01% RBS, no irradiation, day 7 post-injury, p<0.0001 (FIG. 3B)
[12] = 0.01% RB every other day without photoactivation
[13] = 0.1% RB every other day with or without photoactivation
[14] = 0.1% RB every other day with or without photoactivation, out to 7 days
[15] = 0.01% RBS, no irradiation, day 14 post-injury

Structure (SMILES): O=C1OC2(c3cc(I)c(O)c(I)c3Oc3c2cc(I)c(O)c3I)c2c(Cl)c(Cl)c(Cl)c(Cl)c21 [RB, 4,5,6,7-tetrachloro-2′, 4′, 5′, 7′-tetraiodo-fluorescein]
- wound closure compared with vehicle alone [1]: accelerates wound closure
- wound closure compared with saline- or vehicle-treated wounds ([1]; RB with or without MGL irradiation, 3 and 7 days after injury): significantly closes full-thickness wounds faster
- wound closure compared with every other treatment group ([1]; photoactivated RB, 14 days post-injury, p<0.05): significantly increased wound closure
- tolerated bolus dose upon intravasation [2]: 1500 mg
- erythema index compared with vehicle alone [3, 11]: significantly increased
- erythema, day 3 versus day 7 ([3]; 0.1% RB, days 3 and 7 post injury (FIG. 3A)): about the same
- exposure in the bloodstream [4]: approximately 300 mg/L and 300 μM
- tissue ROS ([5]; 3 days post-injury, versus all other treatments): significantly increased tissue ROS
- tissue ROS ([5]; day 14): abates to nominal levels
- tissue ROS ([5]; throughout 7 days, versus all other treatments): sustained
- other chemistries [6, 12]: within normal ranges
- Erythrocytes and platelets size, morphology, count ([6]; 0.01% RB every other day without photoactivation, out to 14 days): normal
- Leukocyte count ([6]; 0.01% RB every other day without photoactivation, out to 14 days post-injury/treatment): normal
- mean amylase ([6]; 0.01% RB every other day without photoactivation, all groups): Elevated
- other chemistries [6, 13]: within normal ranges
- Erythrocytes and platelets size, morphology, count [6, 14]: normal
- Leukocyte count ([6]; 0.1% RB every other day with or without photoactivation, out to 7 days post-injury): normal
- mean amylase ([6]; 0.1% RB every other day with or without photoactivation, all treated groups): Elevated
- adverse events [7, 12]: no adverse events noted
- survival through time course ([7]; 0.01% RB every other day without photoactivation, n=33): All animals survived
- Mean body mass ([7]; 0.01% RB every other day without photoactivation, throughout treatment): maintained
- body weight ([7]; 0.01% RB, no irradiation, day 14 post-injury (between day 7 and 14)): slight weight gains; also recorded: gained weight; also recorded: slight increase
- adverse events [7, 13]: no adverse events noted
- survival through time course ([7]; 0.1% RB every other day with or without photoactivation, n=19): All animals survived
- mean body mass loss [7, 14]: ~5%
- body weight ([7]; 0.1% RB with and without irradiation, first seven days post-injury): lost weight
- Body weight and gross examination of internal organs ([7]; at euthanasia): did not show any signs of toxicity
- loss in body or organ weight ([7]; either treatment regimen (single or multidose)): No loss
- toxicity / safety for wound healing applications ([7]; single (photoactivated) and multidose (ambient light, covered) topical application to full-thickness wounds): did not illicit toxicity
- body weight ([7]; vehicle containing 0.01% RB, no irradiation, days 3 and 7 post-injury (FIG. 1B)): constant weights; also recorded: maintained their weights
- wound closure [8]: accelerates wound closure
- wound healing [8]: improves wound healing
- TEWL relative to usual (pre-injury) range [9]: about at the normal level
- TEWL compared with vehicle alone [9]: significantly reduced

Structure (SMILES): O=C([O-])c1c(Cl)c(Cl)c(Cl)c(Cl)c1-c1c2cc(I)c(=O)c(I)c-2oc2c(I)c([O-])c(I)cc12.[Na+].[Na+] [RBS, rose bengal disodium]
- wound closure compared with vehicle alone [1]: statistically significantly less
- erythema index compared with vehicle alone [3, 11]: statistically significant difference
- erythema index compared with vehicle alone [3, 15]: not statistically different
- erythema index relative to usual values [3, 15]: very similar to the usual erythema index values
- number of blood vessels, day 7 versus day 3 post-injury [10]: statistically greater
- loss of body weight ([7]; 0.1% RBS with irradiation (MGL)): approximately 5%
- loss of body weight ([7]; 0.1% RBS without irradiation): approximately 5%
- TEWL relative to usual (pre-injury) range [9]: back at their usual range
- TEWL compared with vehicle alone [9]: statistically significant difference
